The subject of series [1] is recombinant NL4-3 virus (nef section replaced with Renilla luciferase gene) in MT-2 cells. Briefly: HIV cell culture assay (antiviral activity, luciferase readout in infected MT-2 cells). It counts as cell-based. The conditions noted are these: NL43. The protocol:
HIV cell culture assay—MT-2 cells, 293T cells and the proviral DNA clone of NL4-3 virus were obtained from the NIH AIDS Research and Reference Reagent Program. MT-2 cells were propagated in RPMI 1640 media supplemented with 10% heat inactivated fetal bovine serum (FBS), […]. The 293T cells were propagated in DMEM media supplemented with 10% heat inactivated FBS, […]. A recombinant NL4-3 proviral clone, in which a section of the nef gene was replaced with the Renilla luciferase gene, was used to make the reference virus used in these studies. The recombinant virus was prepared through transfection of the recombinant NL4-3 proviral clone into 293T cells using Transit-293 Transfection Reagent from Minis Bio LLC (Madison, Wis.). Supernatent was harvested after 2-3 days and the amount of virus present was titered in MT-2 cells using luciferase enzyme activity as a marker by measuring luciferase enzyme activity. Luciferase was quantitated using the EnduRen Live Cell Substrate from Promega (Madison, Wis.). Antiviral activities of compounds toward the recombinant virus were quantified by measuring luciferase activity in MT-2 cells infected for 4-5 days with the recombinant virus in the presence of serial dilutions of the compound.
The 50% effective concentration (EC5o) was calculated by using the exponential form of the median effect equation where (Fa)=1/[1+(ED50/drug conc.)m] (Johnson Va., Byington R T. Infectivity Assay. In Techniques in HIV Research. ed. Aldovini A, Walker B D. 71-76. New York: Stockton Press.1990). The 50% inhibitory concentration (EC50) was calculated by using the exponential form of the median effect equation where percent inhibition=1/[1 +(EC50/drug concentration)m], where m is a parameter that reflects the slope of the concentration-response curve.

The nature of series [2]: Compound cytotoxicity, XTT-based colorimetric assay. It is filed as cell-based. The conditions noted are these: human; uninfected MT2 cells, day 4, XTT. The protocol:
Compound cytotoxicity and the corresponding CC50 values were determined using the same protocol as described in the antiviral assay except that uninfected cells were used. Cytotoxicity was assessed on day 4 in uninfected MT2 cells by using a XTT (2,3-bis[2-Methoxy-4-nitro-5-sulfophenyl]-2H-tetrazolium-5-carboxyanilide inner salt)-based colorimetric assay (Sigma-Aldrich, St Louis, Mo).

Each structure is given as a SMILES string. A value given as a limit tells only on which side of the number the result lay.

Consider `CC1NCCNC1c1ccc2c(=O)n(-c3ccc(Cl)c4c(NS(C)(=O)=O)nn(C)c34)c([C@H](Cc3cc(F)cc(F)c3)NC(=O)Cn3nc(C(F)F)c4c3C(F)(F)[C@@H]3C[C@H]43)nc2c1` (stereo partly drawn) [Example 10, N-((1S)-1-((3P)-3-(4-chloro-1-methyl-3-(methylsulfonamido)-1H-indazol-7-yl)-7-(3-methylpiperazin-2-yl)-4-oxo-3,4-dihydroquinazolin-2-yl)-2-(3,5-difluorophenyl)ethyl)-2-((3bS,4aR)-3-(difluoromethyl)-5,5-difluoro-3b,4,4a,5-tetrahydro-1H-cyclopropa[3,4]cyclopenta[1,2-c]pyrazol-1-yl)acetamide], for which, in series [1], the EC50 (in general, the concentration at which the effect is half-maximal) stood at 0.933 nM. The CC50 – broadly, the concentration giving 50% cytotoxicity – at 4 day in series [2] is above 1000 nM.
The matching figures for `O=C(Cn1nc(C(F)F)c2c1C(F)(F)[C@@H]1C[C@H]21)N[C@@H](Cc1cc(F)cc(F)c1)c1nc2cc(C3=CCOCC3)ccc2c(=O)n1-c1ccc(Cl)c2c(NS(=O)(=O)C3CC3)nn(CC(F)F)c12` [Example 16, N—((S)-1-((3P)-3-(4-chloro-3-(cyclopropanesulfonamido)-1-(2,2-difluoroethyl)-1H-indazol-7-yl)-7-(3,6-dihydro-2H-pyran-4-yl)-4-oxo-3,4-dihydroquinazolin-2-yl)-2-(3,5-difluorophenyl)ethyl)-2-((3bS,4aR)-3-(difluoromethyl)-5,5-difluoro-3b,4,4a,5-tetrahydro-1H-cyclopropa[3,4]cyclopenta[1,2-c]pyrazol-1-yl)acetamide]: 0.3 nM and above 500 nM.
Turning to `C[C@@H]1CC(c2ccc3c(=O)n(-c4ccc(Cl)c5c(NS(C)(=O)=O)nn(C)c45)c([C@H](Cc4cc(F)cc(F)c4)NC(=O)Cn4nc(C(F)F)c5c4C(F)(F)[C@@H]4C[C@H]54)nc3c2)C[C@H](C)O1` (stereo partly drawn) [Example 22, N-((1S)-1-((3P)-3-(4-chloro-1-methyl-3-(methylsulfonamido)-1H-indazol-7-yl)-7-((2R,6S)-2,6-dimethyltetrahydro-2H-pyran-4-yl)-4-oxo-3,4-dihydroquinazolin-2-yl)-2-(3,5-difluorophenyl)ethyl)-2-((3bS,4aR)-3-(difluoromethyl)-5,5-difluoro-3b,4,4a,5-tetrahydro-1H-cyclopropa[3,4]cyclopenta[1,2-c]pyrazol-1-yl)acetamide], the EC50 in series [1] is 0.082 nM. Besides, in series [2], the cytotoxic concentration (CC50) at 4 day is above 500 nM.

These data come from US20210393633A1, “INHIBITORS OF HUMAN IMMUNODEFICIENCY VIRUS REPLICATION” (ViiV HEALTHCARE UK (NO.5) LIMITED, priority 2018, published 2021).
